Data set [1] in a line: Stability of analyte in stored plasma samples (bioanalytical validation). Type of data set: in vitro ADME, human. Conditions: about -20° C. and about −70° C. The procedure: Bioanalytical methods: plasma samples are analyzed at Q2 Solutions (Ithaca, NY). The samples are analyzed for the GGG tri-receptor agonist using a validated liquid chromatography high resolution mass spectrometry method. The lower limit of quantification is 1.00 ng/mL and the upper limit of quantification is 500.00 ng/ml. Samples above a limit of quantification are diluted and reanalyzed to yield results within the calibrated range. The intra-assay accuracy (% relative error) during validation ranges from −6.3% to 15.7%. The intra-assay precision (% relative standard deviation) during validation is ≤14.7%. The GGG tri-receptor agonist is stable for up to 96 days when stored at about-20° C. and about −70° C.

A short description of data set [2]: MAD study in individuals with diabetes: safety and tolerability. In kind it is in vivo, human. The source says: Studies are designed to evaluate the safety, tolerability, PD and PK of the GGG tri-receptor agonist (SEQ ID NO:1) in individuals with diabetes. The MAD study is a randomized, investigator- and participant-blind, placebo-controlled, multiple-ascending dose, single-site study conducted in individuals with diabetes (i.e., females or males aged 20-70 years, inclusive, with T2DM for at least 3 months and HbA1c at lead-in and screening of ≥7.0% and ≤10.5% and treated with diet and exercise alone or a stable dose of metformin for at least 3 months prior to screening, with stable body weight for 3 months prior to randomization and with a BMI of 23-50 kg/m^2 at screening).
Dose escalation of the GGG tri-receptor agonist is assessed over 12 weeks in cohorts with a starting dose of 0.5 mg. One cohort of 13 individuals is administered 0.5 mg for 12 weeks. A second cohort of 13 individuals is administered 1.5 mg for 12 weeks. A third cohort of 15 individuals is administered 3.0 mg for 12 weeks. A fourth cohort of 15 individuals is administered 3.0 mg for 4 weeks and then administered 6.0 mg for 8 weeks. A fifth cohort of 16 individuals is administered 3.0 mg for 2 weeks, administered 6.0 mg for 2 weeks, administered 9.0 mg for 4 weeks, and then administered 12 mg for 4 weeks. Alternate dose increment steps may be introduced based on emerging safety and tolerability data from the preceding cohorts, and the dose increment steps can be reduced. As a non-limiting example, in Cohort 4, escalation from starting dose of 3 mg may occur via a step-through dose of 4.5 mg before attaining 6 mg, in Cohort 5, escalation from starting dose of 3 to 12 mg may occur via an additional step through dose level of 4.5 mg, prior to the planned doses 6 and 9 mg. In addition to these proposed alternate regimens in Cohort 4 and Cohort 5, planned dose for escalation between cohorts and within cohorts may be further reduced if warranted by safety or tolerability data.
In the event of drug hypersensitivity reactions (immediate or nonimmediate), samples are collected for antidrug antibody (ADA) analysis as close to the onset of the event as possible, at the resolution of the event, and 30 days following the onset of the event. Samples are analyzed using a validated electrochemiluminescence immunosorbent assay at BioAgilytix Labs (Durham, NC).

The next data set in a line: Phase 2 study for T2DM. In kind it is in vivo, human. Conditions: 16 week data; start 1 or 2 mg, steps of 1, 2, 3 or 4 mg to maximum 12 mg QW SC. The source says: Studies are designed to further evaluate the effectiveness and safety of the GGG tri-receptor agonist (SEQ ID NO: 1) in a larger population of individuals with diabetes. The study is a randomized, investigator- and participant-blind, placebo-controlled study conducted in individuals with diabetes (i.e., females or males aged 18-75 years, inclusive, with T2DM for at least 3 months and HbA1c at lead-in and screening of ≥7.0% and ≤10.5% and treated with diet and exercise alone or a stable dose of metformin for at least 3 months prior to screening, with stable body weight for 3 months prior to randomization and with a BMI of 25-50 kg/m^2 at screening).
Dose escalation of the GGG tri-receptor agonist is assessed over 36 weeks in cohorts administered the GGG tri-receptor agonist, dulaglutide or placebo. A first cohort of 50 individuals is administered 2.0 mg of the GGG tri-receptor agonist for Weeks 1-4, 4.0 mg for the Weeks 5-8, 8.0 mg for Weeks 9-12, and then 12.0 mg for Weeks 13-36. […] A third cohort of 20 individuals is administered 2.0 mg of the GGG tri-receptor agonist for Weeks 1-4, 4.0 mg for Weeks 5-8, and then 8.0 mg for Weeks 9-36. […]
Blood samples are collected pre-dose and at Week 24 for HbA1c. […] In addition, change in body weight (kg) is assessed from baseline to Week 24 and to Week 36. […]

The values below come from patent US12496329B2, “Methods of using and compositions including an incretin analog” (Eli Lilly and Company, priority 2021, dated 2025).

Regarding `CC[C@H](C)[C@H](NC(=O)[C@H](Cc1ccccc1)NC(=O)[C@H](C)NC(=O)C(C)(C)NC(=O)[C@H](CCC(N)=O)NC(=O)[C@H](C)NC(=O)[C@H](CCCCNC(=O)COCCOCCNC(=O)CC[C@H](NC(=O)CCCCCCCCCCCCCCCCCCC(=O)O)C(=O)O)NC(=O)[C@H](CCCCN)NC(=O)[C@H](CC(=O)O)NC(=O)[C@H](CC(C)C)NC(=O)[C@](C)(CC(C)C)NC(=O)[C@@H](NC(=O)[C@H](CO)NC(=O)[C@H](Cc1ccc(O)cc1)NC(=O)[C@H](CC(=O)O)NC(=O)[C@H](CO)NC(=O)[C@@H](NC(=O)[C@H](Cc1ccccc1)NC(=O)[C@@H](NC(=O)CNC(=O)[C@H](CCC(N)=O)NC(=O)C(C)(C)NC(=O)[C@@H](N)Cc1ccc(O)cc1)[C@@H](C)O)[C@@H](C)O)[C@@H](C)CC)C(=O)N[C@@H](CCC(=O)O)C(=O)N[C@@H](Cc1ccc(O)cc1)C(=O)N[C@@H](CC(C)C)C(=O)N[C@@H](CC(C)C)C(=O)N[C@@H](CCC(=O)O)C(=O)NCC(=O)NCC(=O)N1CCC[C@H]1C(=O)N[C@@H](CO)C(=O)N[C@@H](CO)C(=O)NCC(=O)N[C@@H](C)C(=O)N1CCC[C@H]1C(=O)N1CCC[C@H]1C(=O)N1CCC[C@H]1C(=O)N[C@@H](CO)C(N)=O` [GGG tri-receptor agonist, Y-Aib-QGTFTSDYSI-αMeL-LDKK((2-[2-(2-amino-ethoxy)-ethoxy]-acetyl)-(γGlu)-CO-(CH2)18-CO2H)AQ-Aib-AFIEYLLEGGPSSGAPPPS-NH2], the stability when stored entry in data set [1] is listed as “up to 96 days”. Further, the systolic blood pressure result in data set [2] (6.0 mg and 12.0 mg arms) was “dose-dependent decrease in systolic blood pressure”. For the same compound, the “GI events (nausea, diarrhea, vomiting)” value in data set [2] (MAD study) was “mostly mild in severity and dose related”. Also, the heart rate result in data set [2] (MAD study) is reported as “Dose-dependent increases in heart rate”. In addition, the tolerability entry in data set [2] (MAD study, 12 weeks QW) is on record as “well tolerated”; in data set [2] (once-weekly 0.5, 1.5 and 3.0 mg for 12 weeks) it was “well tolerated”. Besides, the “incidences of AEs” value in data set [2] (doses of ≥6.0 mg) is listed as “increased incidences of AEs”. For the same compound, in data set [2] (multiple SC doses of 0.5 to 12.0 mg), the safety concerns entry is recorded as “no unexpected safety concerns”. In addition, the “tolerability profile of dosing regimens” value in “Phase 2 study for T2DM” was “acceptable tolerability profiles”.
